Where two headings read alike, the source gives them in different places.
Columns and labels:
[1] = tested on: K-562 (leukemia cell line); assay: NCI-60 single-dose assay; assay type: cell-based; settings: Homo sapiens, K562, read-out: growth inhibition (GI%) and cytotoxicity (negative values)
Source text: (§1) We first evaluated the cytotoxic activity of tricyclic-pyrrole carboxamides 1–20 using the NCI-60 cell line panel, representing nine different human cancers: leukemia, melanoma, and cancers of the lung, colon, central nervous system (CNS), ovary, kidney, prostate, and breast (the one-dose graph for compounds 1–20 is reported in Supplementary Materials, Figures S43–S62). Compounds 1, 5, 10, 11, 17, and 20 satisfied pre-determined threshold inhibition criteria in a minimum number of cell lines; therefore, they were also tested in the full five-dose assay (Figures S63–S68 in the Supplementary Materials).

[2] = tested on: COLO 205 (colon cancer cell line); assay: NCI-60 single-dose assay; assay type: cell-based, human; settings: Homo sapiens, COLO 205, read-out: growth inhibition (GI%) and cytotoxicity (negative values)
Source text: as §1

[3] = tested on: HCC-2998 (colon cancer cell line); assay: NCI-60 single-dose assay; assay type: cell-based, human; settings: for inhibition at 10 µM: Homo sapiens, HCC 2998, read-out: growth inhibition (GI%) and cytotoxicity (negative values)
Source text: as §1

[4] = tested on: HCT-15 (colon cancer cell line); assay: NCI-60 single-dose assay; assay type: cell-based, human; settings: Homo sapiens, HCT-15, read-out: growth inhibition (GI%) and cytotoxicity (negative values)
Source text: as §1

[5] = tested on: HL-60(TB) (leukemia cell line); assay: NCI-60 single-dose assay; assay type: cell-based, human; settings: Homo sapiens, HL-60, read-out: growth inhibition (GI%) and cytotoxicity (negative values)
Source text: as §1

[6] = tested on: KM12 (colon cancer cell line); assay: NCI-60 single-dose assay; assay type: cell-based, human; settings: Homo sapiens, KM12, read-out: growth inhibition (GI%) and cytotoxicity (negative values)
Source text: as §1

M14 (melanoma cell line) = assay: NCI-60 single-dose assay; assay type: cell-based, human; settings: Homo sapiens, M14, read-out: growth inhibition (GI%) and cytotoxicity (negative values)
Source text: as §1

[7] = tested on: MALME-3M (melanoma cell line); assay: NCI-60 single-dose assay; assay type: cell-based, human; settings: Homo sapiens, Malme-3M, read-out: growth inhibition (GI%) and cytotoxicity (negative values)
Source text: as §1

[8] = tested on: RPMI-8226 (leukemia cell line); assay: NCI-60 single-dose assay; assay type: cell-based, human; settings: Homo sapiens, RPMI-8226, read-out: growth inhibition (GI%) and cytotoxicity (negative values)
Source text: as §1

[9] = tested on: SW-620 (colon cancer cell line); assay: NCI-60 single-dose assay; assay type: cell-based, human; settings: Homo sapiens, SW-620, read-out: growth inhibition (GI%) and cytotoxicity (negative values)
Source text: as §1

[10] = tested on: UACC-62 (melanoma cell line); assay: NCI-60 single-dose assay; assay type: cell-based, human; settings: Homo sapiens, UACC-62, read-out: growth inhibition (GI%) and cytotoxicity (negative values)
Source text: as §1

[11] = tested on: ZIKV, strain Brazil/2016/INMI1; assay: ZIKV viral yield reduction assay on Huh-7 cells; assay type: cell-based, Zika virus; settings: for EC50: Zika virus
Description: We developed a protocol to screen the potential antiviral activity of compounds 1–20 against ZIKV (strain Brazil) on Huh-7 cells, against an H1N1 IAV strain (PR/8/1934) on MDCK cells, and against SARS-CoV-2 (strain Milano) on Vero-TMPRSS. Each compound was tested in duplicate at concentrations of 50 μM, 5 μM, and 0.5 μM. Treatment was applied immediately after infection, and at 24–48 h post-infection, supernatants were collected to assess viral yield, determined as PFU/mL for ZIKV and SARS-CoV-2 or as TCID50/mL for IAV. The test allowed us to evaluate both the antiviral action and the cytotoxicity of each compound, comparing them with reference compounds, such as sofosbuvir for ZIKV and EIDD-1931 for IAV and SARS-CoV-2 (Supplementary Materials, Figures S87–S89).
Viral yield reduction assays for ZIKV and SARS-CoV-2 were performed as previously described by Plicanti. Briefly, 1 × 10^4 Huh-7 cells/well and 1.2 × 10^4 VERO TMPRSS cells/well were infected with ZIKV (MOI 1) or SARS-CoV-2 (MOI 0.05) in a primary 96-well plate for 2 h at 37 °C, 5% CO2. […] Supernatants were collected after 48 h (Huh-7) or 24 h (VERO TMPRSS), diluted 3-fold, and added onto VERO E6 or VERO TMPRSS monolayers, respectively. After 2 h at 37 °C, the inoculum was replaced with 0.75% carboxymethyl cellulose (Merck®, Darmstadt, Germany) in DMEM 2% FBS. After 48–72 h, cells were then fixed with 4% buffered formalin solution (Merck®, Darmstadt, Germany) and stained with 1% crystal violet (Merck®, Darmstadt, Germany). Titres and percentage of inhibition were calculated as follows:
PFU/mL = number of plaques*3^n/vol infection, where n is the dilution where plaques were counted:% inhibition = 100 × (1 − Titre-compound/Titre-untreated control) where Titre-compound and Titre-untreated control are the titres (PFU/mL) obtained on cells treated with compound or DMSO, respectively.
SI was obtained by dividing CC50 by EC50 for each drug/virus/cell line. Compounds with SI values ≥ 10 were active in vitro.

[12] = tested on: SARS-CoV-2 VR PV10734 (strain Milano); assay: microbe, parasite or virus in culture; assay type: cell-based; settings: for selectivity index (SI): CC50/EC50; for EC50: Severe acute respiratory syndrome coronavirus 2
[13] = tested on: IAV strain A/PR/8/34 (H1N1); settings: preliminary screening
in vitro [14] = settings: dog
in vitro [15] = settings: African green monkey
[16] = tested on: IAV strain A/PR/8/34 (H1N1); assay: microbe, parasite or virus in culture; settings: Influenza A virus, MDCK, read-out: IAV/MDCK EC50
[17] = Cytotoxicity on uninfected Huh-7 cells (WST-8, crystal violet); settings: human, uninfected Huh-7 cells
[18] = tested on: MDA-MB-468 (breast cancer cell line); assay: NCI-60 single-dose assay; assay type: cell-based, human; settings: Homo sapiens, MDA-MB-468, read-out: growth inhibition (GI%) and cytotoxicity (negative values)
Source text: as §1

[19] = tested on: 786-0 (renal cancer cell line); assay: NCI-60 single-dose assay; assay type: cell-based, human; settings: Homo sapiens, 786-0, read-out: growth inhibition (GI%) and cytotoxicity (negative values)
Source text: as §1

[20] = tested on: CAKI-1 (renal cancer cell line); assay: NCI-60 single-dose assay; assay type: cell-based, human; settings: Homo sapiens, CAKI-1, read-out: growth inhibition (GI%) and cytotoxicity (negative values)
Source text: as §1

[21] = tested on: NCI-H226 (non-small cell lung cancer cell line); assay: NCI-60 single-dose assay; assay type: cell-based, human; settings: Homo sapiens, NCI-H226, read-out: growth inhibition (GI%) and cytotoxicity (negative values)
Source text: as §1

[22] = tested on: NCI-H460 (non-small cell lung cancer cell line); assay: NCI-60 single-dose assay; assay type: cell-based, human; settings: Homo sapiens, NCI-H460, read-out: growth inhibition (GI%) and cytotoxicity (negative values)
Source text: as §1

NCI-60 cell line panel = assay: NCI-60 single-dose assay, whole panel; assay type: cell-based, human; settings: summary over the panel
Source text: as §1

[23] = preliminary screening (50, 5, 0.5 μM), Huh-7, read-out: ZIKV/Huh‐7 EC50
[24] = SARS-CoV-2, VERO TMPRSS cells, 24 h, full dose-response, read-out: EC50
[25] = preliminary screening (50, 5, 0.5 μM), Vero TMPRSS, read-out: SARS‐CoV‐2/Vero TMPRSS EC50
[26] = Huh-7, read-out: ZIKV/Huh‐7 EC50

Structure (SMILES)	inhibition at 10 µM [1]	inhibition at 10 µM [2]	inhibition at 10 µM [3]	inhibition at 10 µM [4]	inhibition at 10 µM [5]	inhibition at 10 µM [6]	inhibition at 10 µM (M14 (melanoma cell line))	inhibition at 10 µM [7]	inhibition at 10 µM [8]	inhibition at 10 µM [9]	inhibition at 10 µM [10]	EC50 [11, 23]	selectivity index (SI) ([12]; SARS-CoV-2, VERO TMPRSS cells)	EC50 [12, 25]	IAV/MDCK SI [13]	CC50 (in vitro [14])	CC50 at 24 h (in vitro [15])	EC50 [16]	CC50 at 48 h [17]	inhibition at 10 µM [18]	other results
O=C(NCCN1CCN(c2ccccc2)CC1)c1c(Cl)[nH]c2c1CCCc1ccccc1-2 [Compound 12, 2-Chloro-N-(2-(4-phenylpiperazin-1-yl)ethyl)-1,4,5,6-tetrahydrobenzo[6,7]cyclohepta[1,2-b]pyrrole-3-carboxamide]	70.9%	< 60%	< 60%	< 60%	67.2%	< 60%	< 60%	< 60%	< 60%	< 60%	< 60%	1.54 µM	63.63	2.26 µM	9.18	32.1 µM	72.8 µM	3.49 µM	34.2 µM	–	EC50 [12, 24]: 1.17 µM; CC50 (in vitro [15]): 74.5 µM
O=C(NCCN1CCN(c2ccccc2Cl)CC1)c1c(Cl)[nH]c2c1CCCc1ccccc1-2 [Compound 14]	70.3%	< 60%	< 60%	< 60%	71.7%	< 60%	< 60%	< 60%	60.9%	< 60%	< 60%	4.74 µM	–	–	–	15.6 µM	36.7 µM	–	30.2 µM	82.4%	–
COc1ccccc1N1CCN(CCNC(=O)c2c(Cl)[nH]c3c2CCCc2ccccc2-3)CC1 [Compound 15]	92.7%	< 60%	–	66.4%	86.6%	< 60%	84.8%	70.1%	70.1%	60.1%	< 60%	–	–	40.6 µM	0.47	8.29 µM	38 µM	17.7 µM	9.43 µM	94.8%	inhibition at 10 µM [19]: < 60%; inhibition at 10 µM [20]: 61%; growth inhibition (GI%) and cytotoxicity (negative values) ([3]; human): −18.77%; inhibition at 10 µM [21]: < 60%; inhibition at 10 µM [22]: < 60%; EC50 [11, 26]: 4.74 µM
O=C(NCCN1CCN(c2ccc(Cl)cc2)CC1)c1c(Cl)[nH]c2c1CCCc1ccccc1-2 [Compound 13]	70.9%	< 60%	< 60%	< 60%	69.6%	< 60%	< 60%	< 60%	67.4%	< 60%	< 60%	–	150.00	> 0.5 µM	5.45	–	77.2 µM	41.3 µM	57.9 µM	95.3%	selectivity index (SI) ([11]; ZIKV, Huh-7 cells, CC50/EC50): 20.20; EC50 ([11]; Huh-7, 48 h): 3.08 µM; EC50 [11, 26]: 1.3 µM; EC50 [12, 24]: 0.66 µM; CC50 (in vitro [15]): 99 µM
N#Cc1ccccc1N1CCN(CCNC(=O)c2c(Cl)[nH]c3c2CCCc2ccccc2-3)CC1 [Compound 18, 2-Chloro-N-(2-(4-(2-cyanophenyl)piperazin-1-yl)ethyl)-1,4,5,6-tetrahydrobenzo[6,7]cyclohepta[1,2-b]pyrrole-3-carboxamide]	75.3%	< 60%	< 60%	61.3%	74.3%	< 60%	< 60%	< 60%	69.1%	< 60%	< 60%	4.11 µM	–	–	0.28	13.9 µM	35 µM	49.4 µM	15.5 µM	98.7%	inhibition at 10 µM [19]: < 60%; inhibition at 10 µM [20]: 62.7%; inhibition at 10 µM [21]: < 60%; inhibition at 10 µM [22]: < 60%; growth inhibition (GI%) reached against cancer cell lines of the NCI-60 panel (NCI-60 cell line panel): > 90%

— paper PMC12566046, “Arylpiperazinyl-Benzocycloheptapyrrole-Carboxamides Endowed with Dual Anticancer and Antiviral Activities” (Molecules, 2025)
